Reference: patent publication US12544350B2, “Combinatorial antitumor treatment methods and related compositions, kits, and systems” (Klotho Therapeutics, Inc., priority 2021, dated 2026)

System: LLC animals
Experiment: Cancer treatment: survival and anti-tumor efficacy in LLC animals (Example 13)
Assay type: in vivo
Conditions: day 15; Compound 22 (50 mg/kg), cisplatin (10 mg/kg)
Excerpt: Compositions, system, and/or kits of the present disclosure can be effective at treating cancer and/or tumors. For example, a treatment protocol comprising illustrative compound 22 and cisplatin, co-administered is effective as an anti-tumor treatment, in addition to compound 22 preventing/attenuating kidney damage (caused by the chemotherapeutic nephrotoxin), restoring kidney function, and/or increasing patient survival during chemotherapy. FIG. 19 illustrates the survival efficacy of Compound 22 (50 mg/kg), cisplatin (10 mg/kg), and the combination of Compound 22+cisplatin in LLC animals. The co-administration of compound 22 (an illustrative PTBA prodrug) increased the probability of survival in LLC animals at day 15 from ˜75% (cisplatin alone) to ˜95% (Compound 22+cisplatin co-administration). FIG. 20 illustrates the anti-tumor efficacy of Compound 22, cisplatin, and the combination of Compound 22+cisplatin in LLC animals. cisplatin was administered to LLC animals at day 5 and day 14 of a 21 day study. Compound 22 was co-administered (once daily) 48 hours after each dose of cisplatin, and for 6 additional, consecutive days thereafter.

## N.N.[Cl][Pt][Cl] [cisplatin]
  probability of survival in LLC animals: ~75%
